Biological target: T1, Human FXRα Ligand Binding Domain (FXRα LBD) (Homo sapiens, UniProt Q96RI1)
T1 construct: polyhistidine (N); made in house; host or cells: E. coli BL21 (DE3), pRSET-A vector
T1 sequence (Q96RI1 222-472 isoform Q96RI1-2): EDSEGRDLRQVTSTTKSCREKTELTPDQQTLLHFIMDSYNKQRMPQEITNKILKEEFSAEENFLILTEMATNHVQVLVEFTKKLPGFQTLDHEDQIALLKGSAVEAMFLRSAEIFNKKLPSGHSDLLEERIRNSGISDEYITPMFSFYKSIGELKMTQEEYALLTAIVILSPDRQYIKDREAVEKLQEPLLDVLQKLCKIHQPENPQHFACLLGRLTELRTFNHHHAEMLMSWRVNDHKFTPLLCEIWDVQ
Experiment: FXR Affinity Binding Assay: ligand mediated cofactor peptide (SRC-1 LCD2, 676-700) interaction, time resolved fluorescence
Details: FXRα LBD-APC / europium labeled SRC-1 peptide, TRF signal, at least 2 hours at room temperature; read-out: Activity (pEC50) (converted)

Compound | EC50 [nM]
CC(C)c1onc(-c2ccccc2OC(F)(F)F)c1COc1ccc(NS(=O)(=O)c2cccc(C(=O)O)c2)c(Cl)c1 [Example 68, 3-({[2-Chloro-4-({5-isopropyl-3-[2-(trifluoromethoxy)phenyl]isoxazol-4-yl}methoxy)-phenyl]amino}sulfonyl)benzoic acid] | 1020 to 10000
Cc1cc(OCc2c(-c3ccccc3OC(F)(F)F)noc2C(C)C)ccc1NC(=O)c1cccc(C(=O)O)c1 [Example 33, 3-{[4-({5-Isopropyl-3-[2-(trifluoromethoxy)phenyl]-4-isoxazolyl}methoxy)-2-methylanilino]carbonyl}benzoic acid] | 102 to 1000
CCOC(=O)c1cccc(NCc2ccc(OCc3c(-c4ccccc4OC(F)(F)F)noc3C(C)C)cc2Cl)c1 [Example 95, Ethyl 3-{[2-chloro-4-({5-isopropyl-3-[2-(trifluoromethoxy)phenyl]-4-isoxazolyl}methoxy)benzyl]amino}benzoate] | 102 to 1000
COC(=O)c1cccc(S(=O)(=O)N(C)c2ccc(OCc3c(-c4ccccc4OC(F)(F)F)noc3C(C)C)cc2Cl)c1 [Example 70, Methyl 3-{[[2-chloro-4-({5-isopropyl-3-[2-(trifluoromethoxy)phenyl]-isoxazol-4-yl}methoxy)phenyl](methyl)amino]sulfonyl}benzoate] | 102 to 1000
Cc1cc(OCc2c(-c3c(Cl)cccc3Cl)noc2C(C)C)ccc1N(C)Cc1ccc(CO)cc1 [Example 12, {4-[(4-{[3-(2,6-Dichlorophenyl)-5-isopropyl-4-isoxazolyl]methoxy}-2-dimethylanilino)methyl]phenyl}methanol] | < 100
CCN(c1ccc(OCc2c(-c3c(Cl)cccc3Cl)noc2C(C)C)cc1Cl)S(=O)(=O)c1ccc(C(=O)O)cc1 [Example 65, 4-{[(2-Chloro-4-{[3-(2,6-dichlorophenyl)-5-isopropylisoxazol-4-yl]methoxy}phenyl)-(ethyl)amino]sulfonyl}benzoic acid] | < 100
Cc1cc(OCc2c(-c3ccccc3OC(F)(F)F)noc2C(C)C)ccc1N(C)Cc1ccc(C(=O)O)o1 [Example 18, 5-{[4-({5-Isopropyl-3-[2-(trifluoromethoxy)phenyl]-4-isoxazolyl}methoxy)-2-dimethylanilino]methyl}-2-furoic acid] | < 100
COC(=O)c1cccc(S(=O)(=O)N(C)c2ccc(OCc3c(-c4c(Cl)cccc4Cl)noc3C(C)C)cc2)c1 [Example 42, Methyl 3-{[(4-{[3-(2,6-dichlorophenyl)-5-isopropylisoxazol-4-yl]methoxy}phenyl)-(methyl)amino]sulfonyl}benzoate] | 102 to 1000
CC(C)c1onc(-c2c(Cl)cccc2Cl)c1COc1ccc(CN(C)c2cccc(C(=O)O)c2)c(Cl)c1 [Example 93, 3-[(2-Chloro-4-{[3-(2,6-dichlorophenyl)-5-isopropylisoxazol-4-yl]methoxy}benzyl)(methyl)amino]benzoic acid] | 102 to 1000
Cc1cc(OCc2c(-c3c(Cl)cccc3Cl)noc2C(C)C)ccc1NC(=O)c1cccc(C(=O)O)c1 [Example 26, 3-[(4-{[3-(2,6-Dichlorophenyl)-5-isopropyl-4-isoxazolyl]methoxy}-2-methylanilino)carbonyl]benzoic acid] | 1020 to 10000
CCc1onc(Cc2c(Cl)cccc2Cl)c1COc1ccc(N(C)S(=O)(=O)c2cccc(C(=O)O)c2)c(C)c1 [Example 74, 3-{[(4-{[3-(2,6-Dichlorobenzyl)-5-ethylisoxazol-4-yl]methoxy}-2-methylphenyl)(methyl)-amino]sulfonyl}benzoic acid] | 102 to 1000
Cc1cc(OCc2c(-c3c(Cl)cccc3Cl)noc2C(C)C)ccc1N(C)S(=O)(=O)c1cccc(C(=O)O)c1 [Example 48, 3-{[(4-{[3-(2,6-Dichlorophenyl)-5-isopropylisoxazol-4-yl]methoxy}-2-methylphenyl)-(methyl)amino]sulfonyl}benzoic acid] | < 100
Cc1cc(OCc2c(Cc3c(Cl)cccc3Cl)noc2C2CC2)ccc1N(C)Cc1cccc(C(=O)O)c1 [Example 17, 3-[(4-{[5-Cyclopropyl-3-(2,6-dichlorobenzyl)-4-isoxazolyl]methoxy}-2-dimethylanilino)methyl]benzoic acid] | 102 to 1000
COC(=O)c1cccc(N(C)Cc2ccc(OCc3c(-c4c(Cl)cccc4Cl)noc3C(C)C)cc2Cl)c1 [Example 92, Methyl 3-[(2-chloro-4-{[3-(2,6-dichlorophenyl)-5-isopropylisoxazol-4-yl]methoxy}benzyl)(methyl)amino]benzoate] | 102 to 1000
CCN(c1ccc(OCc2c(-c3c(Cl)cccc3Cl)noc2C(C)C)cc1Cl)S(=O)(=O)c1cccc(C(=O)OC)c1 [Example 43, Methyl 3-{[(2-chloro-4-{[3-(2,6-dichlorophenyl)-5-isopropylisoxazol-4-yl]methoxy}-phenyl)(ethyl)amino]sulfonyl}benzoate] | 1020 to 10000
Cc1cc(OCc2c(-c3c(Cl)cccc3Cl)noc2C(C)C)ccc1CSc1cccc(C(=O)O)c1 [Example 80, 3-[(4-{[3-(2,6-Dichlorophenyl)-5-isopropylisoxazol-4-yl]methoxy}-2-methylbenzyl)thio]-benzoic acid] | < 100

Compound | EC50 [nM]
CCN(c1ccc(OCc2c(-c3c(Cl)cccc3Cl)noc2C(C)C)cc1Cl)S(=O)(=O)c1cccc(C(=O)O)c1 [Example 50] | < 100
COC(=O)c1cccc(S(=O)(=O)Nc2ccc(OCc3c(-c4c(Cl)cccc4Cl)noc3C(C)C)cc2Cl)c1 [Example 36, Methyl 3-{[(2-chloro-4-{[3-(2,6-dichlorophenyl)-5-isopropylisoxazol-4-yl]methoxy}-phenyl)amino]sulfonyl}benzoate] | 102 to 1000
Cc1cc(OCc2c(-c3c(Cl)cccc3Cl)noc2C(C)C)ccc1N(C)Cc1ccc(C(=O)O)cc1 [Example 5, 4-[(4-{[3-(2,6-Dichlorophenyl)-5-isopropyl-4-isoxazolyl]methoxy}-2-dimethylanilino)methyl]benzoic acid] | < 100
CC(C)c1onc(-c2c(Cl)cccc2Cl)c1COc1ccc(NC(=O)c2ccc(C(=O)O)cc2)c(Cl)c1 [Example 23, 4-{[(2-Chloro-4-{[3-(2,6-dichlorophenyl)-5-isopropylisoxazol-4-yl]methoxy}phenyl)amino]carbonyl}benzoic acid] | 102 to 1000
CCN(c1ccc(OCc2c(-c3c(Cl)cccc3Cl)noc2C(C)C)cc1)S(=O)(=O)c1cccc(C(=O)OC)c1 [Example 45, Methyl 3-{[(4-{[3-(2,6-dichlorophenyl)-5-isopropylisoxazol-4-yl]methoxy}phenyl)(ethyl)-amino]sulfonyl}benzoate] | 1020 to 10000
Cc1cc(OCc2c(-c3ccccc3OC(F)(F)F)noc2C(C)C)ccc1N(C)Cc1ccc(C(=O)O)cc1 [Example 19, 4-{[4-({5-Isopropyl-3-[2-(trifluoromethoxy)phenyl]-4-isoxazolyl}methoxy)-2-dimethylanilino]methyl}benzoic acid] | < 100
COC(=O)c1ccc(CN(C)c2ccc(OCc3c(-c4c(Cl)cccc4Cl)noc3C(C)C)cc2C)cc1 [Example 2, Methyl 4-[(4-{[3-(2,6-dichlorophenyl)-5-isopropyl-4-isoxazolyl]methoxy}-2-dimethylanilino)methyl]benzoate] | < 100
Cc1cc(OCc2c(-c3c(Cl)cccc3Cl)noc2C(C)C)ccc1N(C)Cc1ccc(C#N)cc1 [Example 9, 4-[(4-{[3-(2,6-Dichlorophenyl)-5-isopropyl-4-isoxazolyl]methoxy}-2-dimethylanilino)methyl]benzonitrile] | 102 to 1000
Cc1cc(OCc2c(-c3ccccc3OC(F)(F)F)noc2C(C)C)ccc1N(C)C(=O)c1cccc(C(=O)O)c1 [Example 32, 3-{[4-({5-Isopropyl-3-[2-(trifluoromethoxy)phenyl]-4-isoxazolyl}methoxy)-2-dimethylanilino]carbonyl}benzoic acid] | 102 to 1000
CC(C)c1onc(-c2ccccc2OC(F)(F)F)c1COc1ccc(N(C)S(=O)(=O)c2cccc(C(=O)O)c2)c(Cl)c1 [Example 72, 3-{[[2-Chloro-4-({5-isopropyl-3-[2-(trifluoromethoxy)phenyl]isoxazol-4-yl}methoxy)-phenyl](methyl)amino]sulfonyl}benzoic acid] | 102 to 1000
Cc1cc(OCc2c(-c3ccccc3OC(F)(F)F)noc2C(C)C)ccc1N(C)Cc1cccc(C(=O)O)c1 [Example 20, 3-{[4-({5-Isopropyl-3-[2-(trifluoromethoxy)phenyl]-4-isoxazolyl}methoxy)-2-dimethylanilino]methyl}benzoic acid] | < 100
Cc1cc(OCc2c(-c3c(Cl)cccc3Cl)noc2C(C)C)ccc1OCc1cccc(C(=O)O)c1 [Example 102, 3-[(4-{[3-(2,6-Dichlorophenyl)-5-isopropylisoxazol-4-yl]methoxy}-2-methylphenoxy)-methyl]benzoic acid] | 102 to 1000
COC(=O)c1ccoc1CN(C)c1ccc(OCc2c(-c3c(Cl)cccc3Cl)noc2C(C)C)cc1C [Example 6, Methyl 2-[(4-{[3-(2,6-dichlorophenyl)-5-isopropyl-4-isoxazolyl]methoxy}-2-dimethylanilino)methyl]-3-furoate] | 102 to 1000
COC(=O)c1ccc(CN(C)c2ccc(OCc3c(-c4ccccc4OC(F)(F)F)noc3C(C)C)cc2C)o1 [Example 21, Methyl 5-{[4-({5-isopropyl-3-[2-(trifluoromethoxy)phenyl]-4-isoxazolyl}methoxy)-2-dimethylanilino]methyl}-2-furoate] | < 100
CC(C)c1onc(-c2c(Cl)cccc2Cl)c1COc1ccc(COc2ccc(C(=O)O)cc2)c(Cl)c1 [Example 81, 4-[(2-Chloro-4-{[3-(2,6-dichlorophenyl)-5-isopropylisoxazol-4-yl]methoxy}benzyl)oxy]benzoic acid] | < 100

— patent US7319109B2, “Farnesoid X receptor agonists” (Smith Kline Beecham Corporation, priority 2002, dated 2008)
